One assay deals with Rhino mouse utricles. As to the kind of experiment: Rhino mouse utricle reduction activity. It counts as in vivo, Rhino mice. The following applies: topical; for Utricle Size: 3 weeks; for Utricle size % Change from Control: ns = not statistically significant, others p<0.05. How it is done: Compounds were dissolved in 100% acetone and stored at 4° C. for the duration of the experiment under nitrogen. […] One day after the last dose, the mice were sacrificed by CO2 inhalation. […] The epidermis was then separated from the dermis.
The samples were kept in each of the above solutions for 2 hours. The skin samples were removed from the xylene and mounted on glass microscope slides. Image analysis, using the Ultimage image analysis software, was used to determine the mean diameter and area of utricles. Approximately 5 fields per sample were examined, for an average of 150 utricles per mouse measured.

A further assay relates to human sebaceous cells. As to the kind of experiment: Antiproliferative activity on human sebocytes in vitro. Format: cell-based. The settings on record: Homo sapiens; for IC50: 240 h, first passage cells, 10 days of exposure, read-out: Inhibition of human sebaceous cell proliferation in vitro IC50. Here is the method: Sebaceous cells were isolated from adult human sebaceous glands by a combination of enzymatic and mechanical methods (Doran et al., 1991). The cells were cultured in Iscove's medium containing 10% fetal calf serum and 4 μg/ml dexamethasone on a layer of growth-arrested 3T3 mouse fibroblasts. Cells were plated in medium without the test compound and then given test compound in fresh medium 24-48 hours after the initial plating. The cultures were given fresh medium, containing the test compound, every 48 hours. On the day of harvesting, the cultures were rinsed with 0.03% EDTA in PBS, to remove only the 3T3 fibroblasts. followed by incubation in 0.05% trypsin/0.03% EDTA. The cells were suspended, mixed vigorously to prepare a single cell suspension and counted in a hemocytometer.
Stock solutions of compounds were made up as 10^-2 M solutions in 100% DMSO and stored at -20° C. in the dark. Compounds in solution were brought to room temperature and used by diluting directly into complete medium to the appropriate concentration.
The compounds of Example 12, Example 2, and Example 4 were tested for their effects on inhibiting the proliferation of first passage human sebaceous cells in vitro after 10 days of exposure to drug.

Assay [1] concerns retinoic acid X receptors ("RXR"). The following applies: cited from earlier work.
Assay [2] deals with nuclear retinoic acid receptors ("RAR"). The settings on record: cited from earlier work.
Assay [3] deals with Hamster Ear Sebaceous Gland. As to the kind of experiment: Effect on size of sebaceous glands of Golden Syrian hamsters. It counts as in vivo. On the set-up: Sebaceous Gland Size: unit not given here. The settings on record: 4 weeks topical dosing. How it is done: Charles River Golden Syrian male hamsters were given the desired dose in acetone. The compounds were stored at 4° C. protected from light. Fresh solutions were made up weekly.
Hamsters were dosed daily for five days, rested for two days, and dosed again for five days until 20 doses were given. The volume of solution was 50 microliters per ear.
Hamsters were sacrificed by CO2 inhalation, and the ears removed for histological evaluation. One ear was removed and the ventral surface separated from the rest of the ear. A 2 mm punch was removed 5 mm from the tip of the ear and stained in 0.1 % Sudan Black B dissolved in 100% propylene glycol overnight. After destaining, the size of sebaceous glands was quantified with a Donsanto Image Analysis System.
Data are given as the average area of 80-120 sebaceous glands per dose, as percent of the control (solvent-treated) sections.

In a further assay the target is T1, RXRα (Homo sapiens, UniProt P19793).
T1 sequence (P19793 1-462): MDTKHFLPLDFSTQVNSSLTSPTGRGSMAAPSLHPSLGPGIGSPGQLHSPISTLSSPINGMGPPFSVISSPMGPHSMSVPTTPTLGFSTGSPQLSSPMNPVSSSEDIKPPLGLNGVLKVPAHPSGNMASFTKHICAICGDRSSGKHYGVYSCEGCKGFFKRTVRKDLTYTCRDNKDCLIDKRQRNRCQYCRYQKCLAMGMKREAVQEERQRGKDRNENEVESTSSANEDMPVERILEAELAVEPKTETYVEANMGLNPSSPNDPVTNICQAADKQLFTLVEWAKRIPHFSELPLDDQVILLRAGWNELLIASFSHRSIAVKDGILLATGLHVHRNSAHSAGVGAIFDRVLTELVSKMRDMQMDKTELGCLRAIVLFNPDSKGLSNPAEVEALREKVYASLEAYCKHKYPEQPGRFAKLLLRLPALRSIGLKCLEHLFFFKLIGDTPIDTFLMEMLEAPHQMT
As to the kind of experiment: RXRα activation (transactivation). The following applies: Table 1; read-out: Activation ED50, RXRα. Format: cell-based. An excerpt: Methods essentially as described in those publications were used to determine the binding and transactivation properties of retinoids reported in the Examples herein.

The test system of a further assay is HL-60 cells. As to the kind of experiment: HL-60 differentiation (NBT reduction). It counts as cell-based, human. The settings on record: in combination with RARα retinoid. Here is the method:
Under the influence of retinoids, HL-60 cells (a human myeloid leukemia cell line) differentiate into granulocytes. This differentiation of HL-60 cells into granulocytes is mediated by RARα, and so provides the basis for the use of retinoids to treat leukemia.
Retinoid-induced differentiation of HL-60 cells was assayed by measuring their oxidative burst potential via the reduction of NBT (Nitroblueterstazolium) [Pick et al., J. Reticuloendothelial Soc., 30:581-593 (1981)].
HL-60 cells were maintained in RPMI 1640 medium supplemented with 10% FCS, 2mM L-glutamine, ImM sodium pyruvate, 1% non-essential amino acids, 50 U/ml penicillin and 50 μg/ml streptomycin (=RPMI/FCS).
30,000 cells/[…] of RPMI/FCS were seeded into flat-bottomed microtiter wells. 10 μl of retinoids diluted in complete medium were added at the same time to yield final concentrations betweeen 10^-11 and 10^-6 M (stock solutions of 10^-2 M in ethanol were kep at -20° C. and protected from light). After 3 days, the medium was removed with a multichannel pipette and replaced with 100 μl of NBT solution (1 mg/ml in PBS with 200 nM phorbol myristate acetate (PMA). Following an additional hour incubation at 37° C. the NBT solution was removed and 100 μl of 10% SDS in 0.01 N HCl was added. The amount of the reduced NBT was quantified photometrically at 540 nm using an automated plate reader. The mean of 3 wells was calculated. S.E.M. were between 5 and 10%.

The subject of a further assay is mouse B cell. As to the kind of experiment: Inhibition of LPS-induced mouse B cell proliferation (3H-thymidine incorporation). Format: cell-based. Here is the method:
Single cell suspensions of mouse spleen were set up in culture in flatbottomed 96 well Microtiter trays, 0.2 ml/well of a 2×10^5 /ml cell suspension in IMDM supplemented with 10% foetal calf serum, HEPES, antibiotics and 50 μM 2-mercaptoethanol. The specific B cell mitogen E. coli lipopolysaccharide (DIFCO) (LPS) was added at 50μg/ml. Cultures were incubated at 37° C. in a humidified atmosphere and 5% CO2.
The retinoids to be tested were first titrated in triplicate from 10 nM to 10 μM and left throughout the whole culture period. […] Cyclosporin A (Sandoz AG) was used as a reference compound (from 1 nM to 1 μM).
The cultures were then harvested on glass fiber filters and the radioactivity imcorporated into DNA measured in a β-liquid scintillation counter (Betaplate, Wallac Oy, Turku, Finland).
The results are expressed as % of the response of untreated cultures. […] Retinoids were added to the cultures at the beginning of the culture period.

Here are results for six compounds from patent US5986131A, “RXR selective ligands” (Hoffmann-La Roche Inc., priority 1997, dated 1999).

With `CC1=C(/C=C/C(C)=C/C=C/C(C)=C\C(=O)O)C(C)(C)CCC1` [13-cis-retinoic acid, reference compound], the “Utricle Size” value was found to be 9187 ± 794 μm^2 / utricle with Rhino mouse utricles (0.1 μg/day), 6400 ± 424 μm^2 / utricle in the assay on Rhino mouse utricles (1 μg/day), 3793 ± 368 μm^2 / utricle in the assay on Rhino mouse utricles (10 μg/day) and 3132 ± 305 μm^2 / utricle in the assay with Rhino mouse utricles (100 μg/day). Besides, the “Utricle size % Change from Control” value is -6% in the assay with Rhino mouse utricles (0.1 μg/day), -34% in the assay with Rhino mouse utricles (1 μg/day), -61% in the assay with Rhino mouse utricles (10 μg/day) and -68% in the assay on Rhino mouse utricles (100 μg/day). The IC50 with human sebaceous cells was found to be 100 nM. Besides, the “binding to RXR (in words)” value in assay [1] is on record as “do not”. In assay [2], the “binding to RAR (in words)” value is listed as “bind to RARα”. In addition, the “Sebaceous Gland Size” value in assay [3] (1 μg/day) amounted to 14029 ± 2977; in assay [3] (10 μg/day), 12965 ± 2029; in assay [3] (100 μg/day), 10459 ± 1302. Besides, the “Sebaceous gland size % Change from Control” value was -15% in assay [3] (1 μg/day, ns = not statistically significant); -21% in assay [3] (10 μg/day, ns = not statistically significant); -37% in assay [3] (100 μg/day).

For the compound `CC1=C(/C=C/C(C)=C(Br)\C=C\C(C)=C\C(=O)O)C(C)(C)CCC1` [Example 2, (All-E)-6-Bromo-3,7-dimethyl-9-(2,6,6-trimethyl-1-cyclohexen-1-yl)-2,4,6,8-nonatetraenoic acid], the “Utricle Size” value in the assay with Rhino mouse utricles (0.1 μg/day) worked out at 9535 ± 890 μm^2 / utricle; in the assay on Rhino mouse utricles (1 μg/day), 9616 ± 1134 μm^2 / utricle; in the assay on Rhino mouse utricles (10 μg/day) it was 9049 ± 891 μm^2 / utricle; with Rhino mouse utricles (100 μg/day), 5437 ± 615 μm^2 / utricle. Besides, the “Utricle size % Change from Control” value is listed as -2% in the assay with Rhino mouse utricles (0.1 μg/day), -1% in the assay with Rhino mouse utricles (1 μg/day), -7% with Rhino mouse utricles (10 μg/day) and -44% in the assay on Rhino mouse utricles (100 μg/day). In the assay on human sebaceous cells (1000 nM, first experiment, read-out: inhibition of sebaceous cell growth), the inhibition (commonly the share of the control response that was lost under treatment) at 1 µM came to 70%.

For the compound `CC1=C(/C=C/C(C)=C(Cl)\C=C\C(C)=C\C(=O)O)C(C)(C)CCC1` [Example 12, (All-E-)-6-chloro-3,7-dimethyl-9-(2,6,6-trimethyl-1-cyclohexen-1-yl)-2,4,6,8-nonatetraenoic acid], the “Utricle Size” value with Rhino mouse utricles (0.1 μg/day) came to 9104 ± 829 μm^2 / utricle; with Rhino mouse utricles (1 μg/day), 9156 ± 938 μm^2 / utricle; with Rhino mouse utricles (10 μg/day), 7634 ± 485 μm^2 / utricle; in the assay with Rhino mouse utricles (100 μg/day), 3596 ± 300 μm^2 / utricle. The “Utricle size % Change from Control” value was -7% in the assay on Rhino mouse utricles (0.1 μg/day), -6% in the assay on Rhino mouse utricles (1 μg/day), -22% with Rhino mouse utricles (10 μg/day) and -63% with Rhino mouse utricles (100 μg/day). Further, the IC50 in the assay with human sebaceous cells worked out at 100 nM.

On to `CC1(C)CCC(C)(C)c2cc(C(=O)Nc3ccc(C(=O)O)cc3)ccc21` [Compound A, reference compound], for which the EC50 at RXRα is over 10 µM. The “potentiation of HL-60 differentiation (in words)” value with HL-60 cells is “somewhat more pronounced”.

In the case of `CC1=C(/C=C/C(C)=C/C=C/C(C)=C/C(=O)O)C(C)(C)CCC1` [All-trans retinoic acid, all-trans retinoic acid, reference compound], the inhibition at 0.01 µM in the assay with mouse B cell (Mus musculus, B-cell, 96 h, day 4, 10 nM, read-out: inhibition of B cell response) was about 30%. The compound also displayed an IC50 in the assay with mouse B cell (alone, FIG. 4, day 3) of 1 nM. Moreover, in the assay with mouse B cell (day 4, 1 nM), the “effect on B cell response” value was “not inhibitory any longer and actually induces a minor enhancement of the response”. Further, the “binding to RXR (in words)” value in assay [1] was “do not”. Further, the “binding to RAR (in words)” value in assay [2] is given as “bind to RARα”.

In the case of `CC1=C(/C=C/C(C)=C\C=C\C(C)=C\C(=O)O)C(C)(C)CCC1` [9-cis-retinoic acid, reference compound], the “Utricle Size” value is reported as 8650 ± 427 μm^2 / utricle in the assay with Rhino mouse utricles (0.1 μg/day), 6926 ± 497 μm^2 / utricle with Rhino mouse utricles (1 μg/day), 3540 ± 354 μm^2 / utricle in the assay with Rhino mouse utricles (10 μg/day) and 2644 ± 312 μm^2 / utricle in the assay with Rhino mouse utricles (100 μg/day). For the same compound, the “Utricle size % Change from Control” value is reported as -11% with Rhino mouse utricles (0.1 μg/day), -29% with Rhino mouse utricles (1 μg/day), -64% with Rhino mouse utricles (10 μg/day) and -73% in the assay on Rhino mouse utricles (100 μg/day). Further, the IC50 with human sebaceous cells stood at 100 nM. The “binding to RXR (in words)” value in assay [1] is listed as “binds to a group of receptors known as the retinoic acid X receptors”. Moreover, the “binding to RAR (in words)” value in assay [2] is “also acts as a ligand for the RAR group of receptors”.
